# Laboratory results published in the NIST ThermoML archive (doi:10.1021/je0400052).
# Numbers after ± are expanded uncertainties.
# Columns and labels:
# [1] = xn = mol fraction of the nth substance listed; settings: 101.3 kPa, Liquid
# [2] = refractive index (Na D-line) (dimensionless); xn = mol fraction of the nth substance listed; settings: 101.3 kPa, Liquid
smiles,measurement,setting,value
CCOC=O [ethyl methanoate] + CCc1ccccc1,mass density,"[1]; 303.15 K, x1 = 0.1478",862.2 ± 3.5 kg/m3
same,viscosity,"[1]; 303.15 K, x1 = 0.1478",0.558 ± 0.015 mPa·s
same,mass density,"[1]; 303.15 K, x1 = 0.2728",869.9 ± 3.6 kg/m3
same,viscosity,"[1]; 303.15 K, x1 = 0.2728",0.527 ± 0.015 mPa·s
same,mass density,"[1]; 303.15 K, x1 = 0.3884",871.2 ± 3.6 kg/m3
same,viscosity,"[1]; 303.15 K, x1 = 0.3884",0.499 ± 0.014 mPa·s
same,mass density,"[1]; 303.15 K, x1 = 0.4978",876.3 ± 3.6 kg/m3
same,viscosity,"[1]; 303.15 K, x1 = 0.4978",0.473 ± 0.014 mPa·s
same,mass density,"[1]; 303.15 K, x1 = 0.6",881.8 ± 3.6 kg/m3
same,viscosity,"[1]; 303.15 K, x1 = 0.6",0.45 ± 0.013 mPa·s
same,mass density,"[1]; 303.15 K, x1 = 0.6925",886.6 ± 3.6 kg/m3
same,viscosity,"[1]; 303.15 K, x1 = 0.6925",0.43 ± 0.013 mPa·s
same,mass density,"[1]; 303.15 K, x1 = 0.7768",891 ± 3.7 kg/m3
same,viscosity,"[1]; 303.15 K, x1 = 0.7768",0.413 ± 0.012 mPa·s
same,mass density,"[1]; 303.15 K, x1 = 0.851",896.6 ± 3.7 kg/m3
same,viscosity,"[1]; 303.15 K, x1 = 0.851",0.397 ± 0.012 mPa·s
same,mass density,"[1]; 303.15 K, x1 = 0.9309",903.7 ± 3.7 kg/m3
same,viscosity,"[1]; 303.15 K, x1 = 0.9309",0.38 ± 0.011 mPa·s
same,mass density,"[1]; 313.15 K, x1 = 0.1478",853.7 ± 3.8 kg/m3
same,viscosity,"[1]; 313.15 K, x1 = 0.1478",0.502 ± 0.014 mPa·s
same,mass density,"[1]; 313.15 K, x1 = 0.2728",857.7 ± 3.9 kg/m3
same,viscosity,"[1]; 313.15 K, x1 = 0.2728",0.476 ± 0.014 mPa·s
same,mass density,"[1]; 313.15 K, x1 = 0.3884",861.8 ± 3.9 kg/m3
same,viscosity,"[1]; 313.15 K, x1 = 0.3884",0.452 ± 0.013 mPa·s
same,mass density,"[1]; 313.15 K, x1 = 0.4978",866.3 ± 3.9 kg/m3
same,viscosity,"[1]; 313.15 K, x1 = 0.4978",0.42 ± 0.012 mPa·s
same,mass density,"[1]; 313.15 K, x1 = 0.6",873.2 ± 3.9 kg/m3
same,viscosity,"[1]; 313.15 K, x1 = 0.6",0.409 ± 0.012 mPa·s
same,mass density,"[1]; 313.15 K, x1 = 0.6925",875.9 ± 3.9 kg/m3
same,viscosity,"[1]; 313.15 K, x1 = 0.6925",0.391 ± 0.012 mPa·s
same,mass density,"[1]; 313.15 K, x1 = 0.7768",880 ± 4 kg/m3
same,viscosity,"[1]; 313.15 K, x1 = 0.7768",0.376 ± 0.011 mPa·s
same,mass density,"[1]; 313.15 K, x1 = 0.851",885.1 ± 4 kg/m3
same,viscosity,"[1]; 313.15 K, x1 = 0.851",0.363 ± 0.011 mPa·s
same,mass density,"[1]; 313.15 K, x1 = 0.9309",891.7 ± 4 kg/m3
same,viscosity,"[1]; 313.15 K, x1 = 0.9309",0.351 ± 0.011 mPa·s
same,refractive index,"[2]; 303.15 K, x1 = 0.1478",1.4809 ± 0.005
same,refractive index,"[2]; 303.15 K, x1 = 0.2728",1.4691 ± 0.005
same,refractive index,"[2]; 303.15 K, x1 = 0.3884",1.4568 ± 0.005
same,refractive index,"[2]; 303.15 K, x1 = 0.4978",1.4431 ± 0.005
same,refractive index,"[2]; 303.15 K, x1 = 0.6",1.4286 ± 0.005
same,refractive index,"[2]; 303.15 K, x1 = 0.6925",1.4157 ± 0.005
same,refractive index,"[2]; 303.15 K, x1 = 0.7768",1.4058 ± 0.005
same,refractive index,"[2]; 303.15 K, x1 = 0.851",1.3938 ± 0.005
same,refractive index,"[2]; 303.15 K, x1 = 0.9309",1.3709 ± 0.005
same,refractive index,"[2]; 313.15 K, x1 = 0.1478",1.4791 ± 0.005
same,refractive index,"[2]; 313.15 K, x1 = 0.2728",1.4682 ± 0.005
same,refractive index,"[2]; 313.15 K, x1 = 0.3884",1.4532 ± 0.005
same,refractive index,"[2]; 313.15 K, x1 = 0.4978",1.4415 ± 0.005
same,refractive index,"[2]; 313.15 K, x1 = 0.6",1.4269 ± 0.005
same,refractive index,"[2]; 313.15 K, x1 = 0.6925",1.4142 ± 0.005
same,refractive index,"[2]; 313.15 K, x1 = 0.7768",1.4042 ± 0.005
same,refractive index,"[2]; 313.15 K, x1 = 0.851",1.3921 ± 0.005
same,refractive index,"[2]; 313.15 K, x1 = 0.9309",1.3695 ± 0.005
CCOC=O [ethyl methanoate] + Cc1ccc(C)cc1,mass density,"[1]; 303.15 K, x1 = 0.1658",857.7 ± 3.5 kg/m3
same,viscosity,"[1]; 303.15 K, x1 = 0.1658",0.523 ± 0.015 mPa·s
same,mass density,"[1]; 303.15 K, x1 = 0.2572",861.1 ± 3.5 kg/m3
same,viscosity,"[1]; 303.15 K, x1 = 0.2572",0.503 ± 0.014 mPa·s
same,mass density,"[1]; 303.15 K, x1 = 0.4068",868.2 ± 3.5 kg/m3
same,viscosity,"[1]; 303.15 K, x1 = 0.4068",0.472 ± 0.014 mPa·s
same,mass density,"[1]; 303.15 K, x1 = 0.5039",871.6 ± 3.6 kg/m3
same,viscosity,"[1]; 303.15 K, x1 = 0.5039",0.452 ± 0.013 mPa·s
same,mass density,"[1]; 303.15 K, x1 = 0.6037",878.8 ± 3.6 kg/m3
same,viscosity,"[1]; 303.15 K, x1 = 0.6037",0.434 ± 0.013 mPa·s
same,mass density,"[1]; 303.15 K, x1 = 0.6916",883.4 ± 3.6 kg/m3
same,viscosity,"[1]; 303.15 K, x1 = 0.6916",0.418 ± 0.012 mPa·s
same,mass density,"[1]; 303.15 K, x1 = 0.7854",889.6 ± 3.7 kg/m3
same,viscosity,"[1]; 303.15 K, x1 = 0.7854",0.403 ± 0.012 mPa·s
same,mass density,"[1]; 303.15 K, x1 = 0.8588",896 ± 3.7 kg/m3
same,viscosity,"[1]; 303.15 K, x1 = 0.8588",0.39 ± 0.012 mPa·s
same,mass density,"[1]; 303.15 K, x1 = 0.9381",902.9 ± 3.7 kg/m3
same,viscosity,"[1]; 303.15 K, x1 = 0.9381",0.375 ± 0.011 mPa·s
same,mass density,"[1]; 313.15 K, x1 = 0.1658",849 ± 3.8 kg/m3
same,viscosity,"[1]; 313.15 K, x1 = 0.1658",0.477 ± 0.014 mPa·s
same,mass density,"[1]; 313.15 K, x1 = 0.2572",851.7 ± 3.8 kg/m3
same,viscosity,"[1]; 313.15 K, x1 = 0.2572",0.451 ± 0.013 mPa·s
same,mass density,"[1]; 313.15 K, x1 = 0.4068",858.8 ± 3.9 kg/m3
same,viscosity,"[1]; 313.15 K, x1 = 0.4068",0.424 ± 0.012 mPa·s
same,mass density,"[1]; 313.15 K, x1 = 0.5039",861.8 ± 3.9 kg/m3
same,viscosity,"[1]; 313.15 K, x1 = 0.5039",0.407 ± 0.012 mPa·s
same,mass density,"[1]; 313.15 K, x1 = 0.6037",868.8 ± 3.9 kg/m3
same,viscosity,"[1]; 313.15 K, x1 = 0.6037",0.393 ± 0.012 mPa·s
same,mass density,"[1]; 313.15 K, x1 = 0.6916",873.5 ± 3.9 kg/m3
same,viscosity,"[1]; 313.15 K, x1 = 0.6916",0.38 ± 0.011 mPa·s
same,mass density,"[1]; 313.15 K, x1 = 0.7854",877.8 ± 4 kg/m3
same,viscosity,"[1]; 313.15 K, x1 = 0.7854",0.371 ± 0.011 mPa·s
same,mass density,"[1]; 313.15 K, x1 = 0.8588",884.7 ± 4 kg/m3
same,viscosity,"[1]; 313.15 K, x1 = 0.8588",0.36 ± 0.011 mPa·s
same,mass density,"[1]; 313.15 K, x1 = 0.9381",891 ± 4 kg/m3
same,viscosity,"[1]; 313.15 K, x1 = 0.9381",0.348 ± 0.011 mPa·s
same,refractive index,"[2]; 303.15 K, x1 = 0.1658",1.4785 ± 0.0099
same,refractive index,"[2]; 303.15 K, x1 = 0.2572",1.4746 ± 0.0099
same,refractive index,"[2]; 303.15 K, x1 = 0.4068",1.4671 ± 0.0099
same,refractive index,"[2]; 303.15 K, x1 = 0.5039",1.4532 ± 0.0099
same,refractive index,"[2]; 303.15 K, x1 = 0.6037",1.451 ± 0.0099
same,refractive index,"[2]; 303.15 K, x1 = 0.6916",1.4239 ± 0.01
same,refractive index,"[2]; 303.15 K, x1 = 0.7854",1.4121 ± 0.0099
same,refractive index,"[2]; 303.15 K, x1 = 0.8588",1.3901 ± 0.0099
same,refractive index,"[2]; 303.15 K, x1 = 0.9381",1.3711 ± 0.0099
same,refractive index,"[2]; 313.15 K, x1 = 0.1658",1.4779 ± 0.0099
same,refractive index,"[2]; 313.15 K, x1 = 0.2572",1.4732 ± 0.0099
same,refractive index,"[2]; 313.15 K, x1 = 0.4068",1.4611 ± 0.0099
same,refractive index,"[2]; 313.15 K, x1 = 0.5039",1.4499 ± 0.0099
same,refractive index,"[2]; 313.15 K, x1 = 0.6037",1.4491 ± 0.01
same,refractive index,"[2]; 313.15 K, x1 = 0.6916",1.4201 ± 0.0099
same,refractive index,"[2]; 313.15 K, x1 = 0.7854",1.4091 ± 0.0099
same,refractive index,"[2]; 313.15 K, x1 = 0.8588",1.3891 ± 0.0099
same,refractive index,"[2]; 313.15 K, x1 = 0.9381",1.3689 ± 0.0099
